The results in this text go back to ChEMBL document CHEMBL1140941 (J Med Chem, 2009).

The target in experiment [1] is T1, Bile acid receptor (Homo sapiens) (UniProt Q96RI1).
T1 sequence (whole entry): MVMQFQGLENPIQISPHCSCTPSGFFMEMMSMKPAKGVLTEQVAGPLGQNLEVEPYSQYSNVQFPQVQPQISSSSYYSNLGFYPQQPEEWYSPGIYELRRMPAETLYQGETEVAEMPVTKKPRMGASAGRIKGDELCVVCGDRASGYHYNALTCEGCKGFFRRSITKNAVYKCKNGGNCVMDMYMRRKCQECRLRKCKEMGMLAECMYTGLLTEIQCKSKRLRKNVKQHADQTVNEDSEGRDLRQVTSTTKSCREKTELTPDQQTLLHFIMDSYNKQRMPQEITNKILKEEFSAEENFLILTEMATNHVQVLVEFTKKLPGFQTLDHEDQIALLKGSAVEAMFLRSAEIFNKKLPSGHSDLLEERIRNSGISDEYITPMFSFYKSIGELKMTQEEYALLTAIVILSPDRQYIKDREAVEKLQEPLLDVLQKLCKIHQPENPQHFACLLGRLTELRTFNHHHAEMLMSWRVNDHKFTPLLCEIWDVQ
Description: Agonist activity at human FXR expressed in african green monkey CV1 cells co-expressing ECRE with RXR co-factor up to 10 uM by luciferase reporter gene assay relative to CDCA. Format: functional, cell-based. The note with it: CV-1.

In the next experiment the target is T2, Bile acid receptor (Homo sapiens, UniProt Q96RI1).
T2 sequence (Q96RI1 whole entry): T1 sequence (whole entry)
Description: Agonist activity at human FXR expressed in african green monkey CV1 cells co-expressing ECRE with RXR co-factor by luciferase reporter gene assay. Format: functional, cell-based, CV-1. (In general: A reporter such as luciferase makes a cellular process visible.)

For orientation: EC50 means the concentration giving half of the maximal effect.

The molecule `CC(C)OC(=O)C1=CN(C(=O)c2ccc(F)cc2)CC(C)(C)c2c1[nH]c1ccccc21` came in with an Efficacy in experiment [1] of 146%. In addition, the EC50 on Bile acid receptor stood at 8 nM. The like results for `CCCOC(=O)C1=CN(C(=O)c2ccc(F)cc2)CCc2c1[nH]c1ccccc21` were, in that order, 130% and 500 nM. The like results for `CCCCOC(=O)C1=CN(C(=O)c2ccc(F)cc2)CCc2c1[nH]c1ccccc21` were, in that order, 109% and 1100 nM. As to `CC(C)OC(=O)C1=CN(C(=O)c2ccc(F)cc2)CCc2c1[nH]c1ccccc21`, the Efficacy in experiment [1] was 120%. This molecule also registered a half-maximal effective concentration (EC50) at Bile acid receptor of 500 nM. With `CCOC(=O)C1=CN(C(=O)c2ccc(Cl)cc2)CC(C)(C)c2c1[nH]c1ccccc21`, in experiment [1], the Efficacy turned out to be 190%. For the same molecule, the EC50 on Bile acid receptor came to 25 nM. In turn, `CCOC(=O)C1=CN(C(=O)c2ccc(OC)cc2)CC(C)(C)c2c1[nH]c1ccccc21` came in with an Efficacy in experiment [1] of 139%. Besides, a half-maximal effect at Bile acid receptor (EC50) was put at 29 nM. In turn, `CCOC(=O)C1=CN(C(=O)c2ccc(F)c(F)c2)CC(C)c2c1[nH]c1ccccc21` (stereo not given) displayed an Efficacy in experiment [1] of 170%. Also, the EC50 at Bile acid receptor amounted to 32 nM. For `CCOC(=O)C1=CN(C(=O)c2ccc(F)c(F)c2)CC(C)(C)c2c1[nH]c1ccccc21`, the Efficacy in experiment [1] came out at 144%. `CCOC(=O)C1=CN(C(=O)c2ccc(F)cc2)CC(C)c2c1[nH]c1ccccc21` (stereo not given) gave an Efficacy in experiment [1] of 160%. Moreover, the EC50 at Bile acid receptor was 57 nM.

On to `CCOC(=O)C1=CN(C(=O)c2ccc(F)cc2)CCc2c1[nH]c1ccccc21`, for which, in experiment [1], the Efficacy came out at 100%. The EC50 at Bile acid receptor amounted to 600 nM. The like results for `CCOC(=O)C1=CN(C(=O)c2ccc(Cl)cc2)CC(C)c2c1[nH]c1ccccc21` (stereo not given) were, in that order, 155% and 73 nM.

`CCOC(=O)C1=CN(C(=O)c2ccc(OC)cc2)CC(C)c2c1[nH]c1ccccc21` (stereo not given): in experiment [1], the Efficacy was found to be 145%. For the same molecule, at Bile acid receptor, the EC50 came out at 60 nM. Regarding `CCOC(=O)C1=CN(C(=O)c2ccc(F)cc2)CC(C)(C)c2c1[nH]c1ccccc21`, the Efficacy in experiment [1] turned out to be 148%. The same molecule gave a 50% effective concentration (EC50) on Bile acid receptor of 22 nM.
